# Measured values published in patent US20230365541A1, “INHIBITOR OF ENHANCER OF ZESTE HOMOLOGUE 2, AND USE THEREOF” (HAISCO PHARMACEUTICALS PTE. LTD., priority 2020, published 2023).
# pIC50: −log10 of the molar value. Where a name gives a salt, the structure may show the parent alone.
# Biological target: EZH2 (Homo sapiens (Human), UniProt Q15910)
# Assay: Test method for EZH2 enzyme activity
# Assay type: biochemical
# Conditions: H3K27(21-44) and [3H]-SAM
# Experimental: The compounds were dissolved in DMSO, formulated into 10 mM solutions and serially diluted with DMSO to obtain 100-fold the final concentration. 200 nL of the solutions of the compounds was transferred to a 384-well plate (Perkin Elmer, Cat. No. 6007299) by using Echo550. EZH2 (BPS, Cat. No. 51004) was diluted with 1×assay buffer (50 mM Tris-HCl 9.0, 0.01% Tween-20, 1 mM DTT) to 2-fold the final concentration (EZH2: 3 nM). A mixed solution of H3K27(21-44) and [3H]-SAM (PerkinElmer, Lot. No. 2146246) (H3K27(21-44): 200 nM, [3H]-SAM: 100 nM) was formulated. The EZH2 diluted solution was taken and added to the 384-well plate at 10 μL/well (10 μL of 1×assay buffer was added in the control group). The plate was sealed and then incubated at room temperature for 15 minutes. 10 μL of the mixed solution of H3K27 (21-44) and [3H]-SAM was added to each well. The plate was sealed and then incubated at room temperature for 60 minutes. 50 μM of SAM (Sigma, Cat. No. A7007) was formulated at low temperature and added to the 384-well plate at 10 μL/well. The sample was taken at 25 μL/well, transferred to a flashplate and incubated at room temperature for at least 1 hour. The flashplate was washed 3 times with a plate washing liquid (dH2O+0.1% Tween-20) and read by using Microbeta. The inhibition rate was calculated in Excel according to: inhibition rate (%)=(maximum valuepositive control−detection signal value)/(maximum valuepositive control−minimum valuenegative control)*100, and IC50 values were fitted by using XL-Fit.
# Chain of EZH2 (Q15910 other isoform, or with tags, fused parts or gaps isoform Q15910-2): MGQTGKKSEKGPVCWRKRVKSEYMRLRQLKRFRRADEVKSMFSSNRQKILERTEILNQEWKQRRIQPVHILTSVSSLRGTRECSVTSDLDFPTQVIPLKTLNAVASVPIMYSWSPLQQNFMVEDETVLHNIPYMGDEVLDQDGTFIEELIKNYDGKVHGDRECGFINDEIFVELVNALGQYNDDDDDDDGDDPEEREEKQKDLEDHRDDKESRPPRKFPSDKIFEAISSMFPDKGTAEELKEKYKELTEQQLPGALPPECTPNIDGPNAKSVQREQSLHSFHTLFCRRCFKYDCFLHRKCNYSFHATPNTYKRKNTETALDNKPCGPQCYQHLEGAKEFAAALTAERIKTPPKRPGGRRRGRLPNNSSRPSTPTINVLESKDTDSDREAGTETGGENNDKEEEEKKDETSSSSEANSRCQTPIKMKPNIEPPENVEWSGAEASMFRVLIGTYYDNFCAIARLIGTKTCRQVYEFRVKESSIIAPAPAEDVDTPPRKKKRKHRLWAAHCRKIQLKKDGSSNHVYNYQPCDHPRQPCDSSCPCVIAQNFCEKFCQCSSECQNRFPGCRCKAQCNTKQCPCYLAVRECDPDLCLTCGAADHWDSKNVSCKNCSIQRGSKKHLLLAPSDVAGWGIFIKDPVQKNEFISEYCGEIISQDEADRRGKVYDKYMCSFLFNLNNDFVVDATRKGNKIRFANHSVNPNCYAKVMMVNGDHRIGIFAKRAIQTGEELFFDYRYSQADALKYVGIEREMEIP
# Chain of EZH2 (O75530 2-441 partner): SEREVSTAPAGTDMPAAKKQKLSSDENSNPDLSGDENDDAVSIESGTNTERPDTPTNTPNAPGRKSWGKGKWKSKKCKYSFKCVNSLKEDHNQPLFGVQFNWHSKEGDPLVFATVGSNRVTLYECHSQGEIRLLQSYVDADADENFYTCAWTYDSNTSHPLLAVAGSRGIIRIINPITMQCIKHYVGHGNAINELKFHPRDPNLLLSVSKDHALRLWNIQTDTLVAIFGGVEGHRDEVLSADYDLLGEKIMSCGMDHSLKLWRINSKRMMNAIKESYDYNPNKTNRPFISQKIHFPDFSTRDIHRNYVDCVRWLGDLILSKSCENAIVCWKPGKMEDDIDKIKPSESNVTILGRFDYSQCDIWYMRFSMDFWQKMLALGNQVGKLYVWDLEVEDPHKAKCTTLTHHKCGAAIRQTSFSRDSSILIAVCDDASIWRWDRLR
# Chain of EZH2 (Q15022 2-739 partner): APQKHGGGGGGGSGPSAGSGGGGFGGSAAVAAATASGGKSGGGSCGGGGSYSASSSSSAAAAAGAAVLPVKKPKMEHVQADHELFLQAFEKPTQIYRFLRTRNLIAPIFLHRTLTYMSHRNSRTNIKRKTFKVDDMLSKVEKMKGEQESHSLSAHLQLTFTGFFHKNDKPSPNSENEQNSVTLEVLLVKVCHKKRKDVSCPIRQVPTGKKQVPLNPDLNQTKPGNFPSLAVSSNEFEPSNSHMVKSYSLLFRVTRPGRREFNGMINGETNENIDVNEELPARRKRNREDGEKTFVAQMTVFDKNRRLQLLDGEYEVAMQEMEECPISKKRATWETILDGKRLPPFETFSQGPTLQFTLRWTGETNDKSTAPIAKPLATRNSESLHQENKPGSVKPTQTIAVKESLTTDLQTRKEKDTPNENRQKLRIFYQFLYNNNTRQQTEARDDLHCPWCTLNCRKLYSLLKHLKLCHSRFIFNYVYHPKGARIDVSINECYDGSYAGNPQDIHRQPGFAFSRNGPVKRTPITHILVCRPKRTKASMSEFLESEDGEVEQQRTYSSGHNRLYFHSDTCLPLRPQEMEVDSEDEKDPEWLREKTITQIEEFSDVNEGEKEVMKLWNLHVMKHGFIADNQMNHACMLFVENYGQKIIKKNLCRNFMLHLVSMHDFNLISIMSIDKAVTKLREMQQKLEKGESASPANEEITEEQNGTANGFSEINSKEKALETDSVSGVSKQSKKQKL
# Chain of EZH2 (Q09028 2-425 partner): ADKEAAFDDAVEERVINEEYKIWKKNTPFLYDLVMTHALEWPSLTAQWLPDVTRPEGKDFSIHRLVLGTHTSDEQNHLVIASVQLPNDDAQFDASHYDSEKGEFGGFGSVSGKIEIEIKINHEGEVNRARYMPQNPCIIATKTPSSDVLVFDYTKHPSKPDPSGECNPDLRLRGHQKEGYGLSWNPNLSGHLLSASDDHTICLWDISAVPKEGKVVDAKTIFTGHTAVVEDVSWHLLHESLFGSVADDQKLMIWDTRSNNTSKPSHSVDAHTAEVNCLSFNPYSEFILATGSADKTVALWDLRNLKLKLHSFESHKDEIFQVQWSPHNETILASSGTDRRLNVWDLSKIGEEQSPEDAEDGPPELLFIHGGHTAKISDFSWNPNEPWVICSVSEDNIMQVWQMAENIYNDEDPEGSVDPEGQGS
# Chain of EZH2 (Q6ZN18 whole entry partner): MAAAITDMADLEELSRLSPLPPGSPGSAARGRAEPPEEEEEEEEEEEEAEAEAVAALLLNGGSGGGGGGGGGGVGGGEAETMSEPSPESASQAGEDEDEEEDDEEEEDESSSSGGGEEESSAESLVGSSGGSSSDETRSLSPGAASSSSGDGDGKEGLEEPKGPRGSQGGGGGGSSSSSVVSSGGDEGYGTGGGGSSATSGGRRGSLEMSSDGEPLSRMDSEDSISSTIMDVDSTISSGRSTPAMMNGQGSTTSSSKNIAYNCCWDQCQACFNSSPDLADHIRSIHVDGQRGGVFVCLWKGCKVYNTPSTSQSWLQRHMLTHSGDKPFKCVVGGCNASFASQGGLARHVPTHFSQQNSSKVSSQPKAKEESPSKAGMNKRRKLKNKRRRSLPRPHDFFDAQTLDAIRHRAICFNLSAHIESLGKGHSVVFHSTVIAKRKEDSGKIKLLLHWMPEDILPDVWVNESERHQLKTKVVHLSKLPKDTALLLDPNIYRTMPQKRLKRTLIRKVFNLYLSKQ
row,SMILES,pIC50
1,"CSc1cc(C)[nH]c(=O)c1CNC(=O)c1cc(Cl)c2c(c1C)OC(C)([C@H]1CC[C@@H](NCC3(C)COC3)CC1)O2 (single isomer, unassigned) [Compound 3, isomer 1, 7-chloro-2,4-dimethyl-N-((6-methyl-4-(methylthio)-2-oxo-1,2-dihydropyridin-3-yl)methyl)-2-(4-(((3-methyloxetan-3-yl)methyl)amino)cyclohexyl)benzo[d][1,3]dioxole-5-carboxamide trifluoroacetate]",9.19
2,"CSc1cc(C)[nH]c(=O)c1CNC(=O)c1cc(Cl)c2c(c1C)OC(C)(C1CCN(C(=O)C3CC(F)(F)C3)CC1)O2 (single isomer, unassigned) [Compound 5, isomer 1, 7-chloro-2-(1-(3,3-difluorocyclobutane-1-carbonyl)piperidin-4-yl)-2,4-dimethyl-N-((6-methyl-4-(methylthio)-2-oxo-1,2-dihydropyridin-3-yl)methyl)benzo[d][1,3]dioxole-5-carboxamide]",9.24
3,"CSc1cc(C)[nH]c(=O)c1CNC(=O)c1cc(Cl)c2c(c1C)OC(C)([C@H]1CC[C@@H](NC(=O)C3CC(F)(F)C3)CC1)O2 (single isomer, unassigned) [Compound 6, isomer 1, 7-chloro-2-(4-(3,3-difluorocyclobutane-1-carboxamido)cyclohexyl)-2,4-dimethyl-N-((6-methyl-4-(methylthio)-2-oxo-1,2-dihydropyridin-3-yl)methyl)benzo[d][1,3]dioxole-5-carboxamide]",9.28
4,"CSc1cc(C)[nH]c(=O)c1CNC(=O)c1cc(Cl)c2c(c1C)OC(C)([C@H]1CC[C@@H](NC(=O)C3CC(F)(F)C3)CC1)O2 (single isomer, unassigned) [Compound 6, isomer 2, 7-chloro-2-(4-(3,3-difluorocyclobutane-1-carboxamido)cyclohexyl)-2,4-dimethyl-N-((6-methyl-4-(methylthio)-2-oxo-1,2-dihydropyridin-3-yl)methyl)benzo[d][1,3]dioxole-5-carboxamide]",9.19
5,"CSc1cc(C)[nH]c(=O)c1CNC(=O)c1cc(Cl)c2c(c1C)OC(C)(C1CCN(CC3CC(F)(F)C3)CC1)O2 (single isomer, unassigned) [Compound 10, isomer 1, 7-chloro-2-(1-((3,3-difluorocyclobutyl)methyl)piperidin-4-yl)-2,4-dimethyl-N-((6-methyl-4-(methylthio)-2-oxo-1,2-dihydropyridin-3-yl)methyl)benzo[d][1,3]dioxole-5-carboxamide]",9.25
6,"CSc1cc(C)[nH]c(=O)c1CNC(=O)c1cc(Cl)c2c(c1C)OC(C)(C1CCN(C3CC(F)(F)C3)CC1)O2 (single isomer, unassigned) [Compound 12, isomer 1, 7-chloro-2-(1-(3,3-difluorocyclobutyl)piperidin-4-yl)-2,4-dimethyl-N-((6-methyl-4-(methylthio)-2-oxo-1,2-dihydropyridin-3-yl)methyl)benzo[d][1,3]dioxole-5-carboxamide]",9.13
7,"CSc1cc(C)[nH]c(=O)c1CNC(=O)c1cc(Cl)c2c(c1C)OC(C)(C1CCC(N3CCC4(CNC(=O)C4)C3)CC1)O2 (single isomer, unassigned) [Compound 18, isomer 2, 7-chloro-2,4-dimethyl-N-((6-methyl-4-(methylthio)-2-oxo-1,2-dihydropyridin-3-yl)methyl)-2-(4-(8-oxo-2,7-diazaspiro[4.4]nonan-2-yl)cyclohexyl)benzo[d][1,3]dioxole-5-carboxamide]",9.11
8,"CSc1cc(C)[nH]c(=O)c1CNC(=O)c1cc(Cl)c2c(c1C)OC(C)([C@H]1CC[C@H](CNC3CC(F)(F)C3)CC1)O2 (single isomer, unassigned) [Compound 40, isomer 1, 7-chloro-2-(4-(((3,3-difluorocyclobutyl)amino)methyl)cyclohexyl)-2,4-dimethyl-N-((6-methyl-4-(methylthio)-2-oxo-1,2-dihydropyridin-3-yl)methyl)benzo[d][1,3]dioxole-5-carboxamide]",9.21
9,"CSc1cc(C)[nH]c(=O)c1CNC(=O)c1cc(Cl)c2c(c1C)OC(C)([C@H]1CC[C@H](CNC3CC(F)(F)C3)CC1)O2 (single isomer, unassigned) [Compound 40, isomer 2, 7-chloro-2-(4-(((3,3-difluorocyclobutyl)amino)methyl)cyclohexyl)-2,4-dimethyl-N-((6-methyl-4-(methylthio)-2-oxo-1,2-dihydropyridin-3-yl)methyl)benzo[d][1,3]dioxole-5-carboxamide]",9.29

# The remaining lines, values ahead:
row,pIC50,SMILES
1,9.22,"CSc1cc(C)[nH]c(=O)c1CNC(=O)c1cc(Cl)c2c(c1C)OC(C)(C1CCC(N3CC(N(C)C)C3)CC1)O2 (single isomer, unassigned) [Compound 1, isomer 2, 7-chloro-2-(4-(3-(dimethylamino)azetidin-1-yl)cyclohexyl)-2,4-dimethyl-N-((6-methyl-4-(methylthio)-2-oxo-1,2-dihydropyridin-3-yl)methyl)benzo[d][1,3]dioxole-5-carboxamide]"
2,9.04,"CSc1cc(C)[nH]c(=O)c1CNC(=O)c1cc(Cl)c2c(c1C)OC(C)(C1CCC(N3CC(C#N)C3)CC1)O2 (single isomer, unassigned) [Compound 2, isomer 1, 7-chloro-2-(4-(3-cyanoazetidin-1-yl)cyclohexyl)-2,4-dimethyl-N-((6-methyl-4-(methylthio)-2-oxo-1,2-dihydropyridin-3-yl)methyl)benzo[d][1,3]dioxole-5-carboxamide]"
3,9.14,"CSc1cc(C)[nH]c(=O)c1CNC(=O)c1cc(Cl)c2c(c1C)OC(C)(C1CCC(N3CC(C#N)C3)CC1)O2 (single isomer, unassigned) [Compound 2, isomer 2, 7-chloro-2-(4-(3-cyanoazetidin-1-yl)cyclohexyl)-2,4-dimethyl-N-((6-methyl-4-(methylthio)-2-oxo-1,2-dihydropyridin-3-yl)methyl)benzo[d][1,3]dioxole-5-carboxamide]"
4,9.29,"CSc1cc(C)[nH]c(=O)c1CNC(=O)c1cc(Cl)c2c(c1C)OC(C)([C@H]1CC[C@@H](NCC3(C)COC3)CC1)O2 (single isomer, unassigned) [Compound 3, isomer 2, 7-chloro-2,4-dimethyl-N-((6-methyl-4-(methylthio)-2-oxo-1,2-dihydropyridin-3-yl)methyl)-2-(4-(((3-methyloxetan-3-yl)methyl)amino)cyclohexyl)benzo[d][1,3]dioxole-5-carboxamide trifluoroacetate]"
5,9.28,"CSc1cc(C)[nH]c(=O)c1CNC(=O)c1cc(Cl)c2c(c1C)OC(C)(C1CCN(C(=O)C3CC3)CC1)O2 (single isomer, unassigned) [Compound 7, isomer 1, 7-chloro-2-(1-(cyclopropanecarbonyl)piperidin-4-yl)-2,4-dimethyl-N-((6-methyl-4-(methylthio)-2-oxo-1,2-dihydropyridin-3-yl)methyl)benzo[d][1,3]dioxole-5-carboxamide]"
6,9.29,"CSc1cc(C)[nH]c(=O)c1CNC(=O)c1cc(Cl)c2c(c1C)OC(C)(C1CCC(c3cnn(C)c3)CC1)O2 (single isomer, unassigned) [Compound 8, isomer 1, 7-chloro-2,4-dimethyl-2-(4-(1-methyl-1H-pyrazol-4-yl)cyclohexyl)-N-((6-methyl-4-(methylthio)-2-oxo-1,2-dihydropyridin-3-yl)methyl)benzo[d][1,3]dioxole-5-carboxamide]"
7,9.05,"CSc1cc(C)[nH]c(=O)c1CNC(=O)c1cc(Cl)c2c(c1C)OC(C)(C1CCC(c3cnn(C)c3)CC1)O2 (single isomer, unassigned) [Compound 8, isomer 2, 7-chloro-2,4-dimethyl-2-(4-(1-methyl-1H-pyrazol-4-yl)cyclohexyl)-N-((6-methyl-4-(methylthio)-2-oxo-1,2-dihydropyridin-3-yl)methyl)benzo[d][1,3]dioxole-5-carboxamide]"
8,9.09,"CO[C@H]1C[C@H](NC2CCC(C3(C)Oc4c(Cl)cc(C(=O)NCc5c(SC)cc(C)[nH]c5=O)c(C)c4O3)CC2)C1 (single isomer, unassigned) [Compound 9, isomer 1, 7-chloro-2-(4-((trans-3-methoxycyclobutyl)amino)cyclohexyl)-2,4-dimethyl-N-((6-methyl-4-(methylthio)-2-oxo-1,2-dihydropyridin-3-yl)methyl)benzo[d][1,3]dioxole-5-carboxamide]"
9,9.32,"CO[C@H]1C[C@H](NC2CCC(C3(C)Oc4c(Cl)cc(C(=O)NCc5c(SC)cc(C)[nH]c5=O)c(C)c4O3)CC2)C1 (single isomer, unassigned) [Compound 9, isomer 2, 7-chloro-2-(4-((trans-3-methoxycyclobutyl)amino)cyclohexyl)-2,4-dimethyl-N-((6-methyl-4-(methylthio)-2-oxo-1,2-dihydropyridin-3-yl)methyl)benzo[d][1,3]dioxole-5-carboxamide]"
